The test system of assay [1] is N-acetyl-β-D-glucosaminidase. Description: Glycosidase inhibition, N-acetyl-β-D-glucosaminidase. The assay is classed as biochemical, Bovine kidney. Particulars: 1 mg/ml. The method, then:
(§1) All enzymes were purchased from Sigma, as were the appropriate p-nitrophenyl substrates. Assays were carried out in microtitre plates. Enzymes were assayed in 0.1 M citric acid/0.2M di-sodium hydrogen phosphate (McIlvaine) buffers at the optimum pH for the enzyme. All assays were carried out at 20° C. For screening assays the incubation assay consisted of 10 μl of enzyme solution, 10 μl of inhibitor solution (made up in water) and 50 μl of the appropriate 5 mM p-nitrophenyl substrate (3.57 mM final conc.) made up in McIlvaine buffer at the optimum pH for the enzyme.
(§2) The reactions were stopped with 0.4M glycine (pH 10.4) during the exponential phase of the reaction, which was determined at the beginning of the assay using blanks with water, which were incubated for a range of time periods to measure the reaction rate using 5 mM substrate solution. Endpoint absorbances were read at 405 nm with a Biorad microtitre plate reader (Benchmark). Water was substituted for the inhibitors in the blanks.

For assay [2], the target named is T1, α-D-glucosidase (Saccharomyces cerevisiae, UniProt P53341).
T1 construct: purchased Sigma
The assay can be described thus: Glycosidase inhibition, α-D-glucosidase (yeast). Particulars: at a concentration of 800 μM. The assay is classed as biochemical, Saccharomyces cerevisiae (Baker's yeast). On the procedure:
as §1, §2

Assay [3] has as its target T2, rabbit small intestine sucrase (Oryctolagus cuniculus, UniProt P07768).
T2 construct: from tissue; host or cells: rabbit small intestine
The assay can be described thus: Inhibition of rabbit small intestine sucrase. The note with it: at a concentration of 700 μM. Format: biochemical.

In another assay the test system is β-D-galactosidase. Description: Glycosidase inhibition, β-D-galactosidase. The assay is classed as biochemical, Bovine liver. The note with it: 1 mg/ml; second galactosidase line. The method, then:
as §1, §2

For a further assay, the system named is Naringinase. Description: Glycosidase inhibition, Naringinase. Format: biochemical, Penecillium decumbens. The note with it: 1 mg/ml. The method, then:
as §1, §2

A further assay has as its system Spleen cells. Description: Cytokine modulation in spleen cells: splenocyte IFN-γ production. Format: cell-based, BALB/c mice. Particulars: for IFN-γ: splenocytes. On the procedure:
BALB/c male and female mice bred and maintained at the University of Strathclyde under conventional conditions were used at varying age.
The mouse spleen was removed aseptically and placed in a sterile petri dish containing 5 mls of complete medium (RPMI, 1% L-Glutamine, 1% Penicillin/Streptomycin and 10% foetal calf serum). Cells suspensions were prepared by using the end of a syringe and grinding the spleen through a wire mesh. The cell suspension was then centrifuged at 1000 rpm for 5 minutes. To remove the erythrocytes, the cell pellet was resuspended in Boyle's solution (Tris 0.17M & Ammonium Chloride 0.16M) and centrifuged again for 5 minutes. The pellet was then washed in medium a further two times, then resuspended in 3 mls medium. A cell count was then carried out.
All spleen cell experiments were carried out in 96-well tissue culture plates. […] Unstimulated wells contained 100 μl of cells and 100 μl of medium. The stimulated wells contained 100 μl of cells plus 50 μl of LPS at 1 μg/ml or 50 μl anti-CD3 at 0.5 μg/ml and 50 μl of medium. The remaining wells contained 100 μl cells, 50 μl of MNLP compound and either 50 μl of anti-CD3 or medium alone.
The appropriate Mabs and standards were used according to the protocol described for IL-12 (described in Example 1, above).

The subject of assay [4] is α-D-glucosidase. The assay can be described thus: Glycosidase inhibition, α-D-glucosidase (Bacillus). Format: biochemical, Bacillus stearothermophilus. Particulars: 1 mg/ml. On the procedure: as §1, §2
The subject of a further assay is β-D-glucosidase. Description: Glycosidase inhibition, β-D-glucosidase. The note with it: for % inhibition glucosidase: 1 mg/ml. Format: biochemical, Almonds (Prunus sp.). The method, then:
as §1, §2

Assay [5] addresses rabbit gut mucosa α-D-glucosidase. Description: Inhibition of rabbit gut mucosa α-D-glucosidase. The assay is classed as biochemical.
In assay [6] the test system is Na^+-dependent D-glucose uptake into ovine intestinal brush border membrane vesicles. Description: Effect on glucose transport (competition assay with labelled D-glucose). The assay is classed as biochemical.
Assay [7] relates to Dendritic cells. The assay can be described thus: Induction of IL-12 secretion in dendritic cells (ELISA). The note with it: for IL-12 RELEASE: dendritic cells, compounds 50 μg/ml and 20 μg/ml, 24 hrs (or 48 hrs). Format: cell-based, BALB/c mice. The method, then:
BALB/c male and female mice bred and maintained at the University of Strathclyde under conventional conditions were used at 8 weeks old.
Bone marrow was obtained from the femurs of mice. The femurs were washed in 70% ethanol and placed in a clean petri dish. Dendritic cell (DC) medium (2.5% granulocyte-macrophage colony-stimulating factor (GM-CSF), 10% […] foetal calf serum, 1% L-glutamine, 1% Penicillin/Streptomycin in RPMI-1640 medium) was injected into the bone marrow of the femur by a pumping action and the cells and medium were collected. 1 ml of the cells in medium was added to a 75 cm^2 flask with 15 mls of DC medium. The flasks were then incubated at 37° C., 5% CO2 to allow DC growth and development. After 5 days an additional 10 mls of DC medium was added.
After 10 days of incubation of bone marrow with GM-CSF, the dendritic cells were harvested. This process was carried out in a tissue culture hood. The contents of the flasks were poured into centrifuge tubes to ensure collection of floating DCs. Approximately 10 mls of cooled phosphate buffered saline (PBS) was added to each empty flask, the flasks gently agitated and the contents collected. […] The collected contents of the flasks were centrifuged for 5 minutes at 200 g and the pellet resuspended in 2 mls of DC medium without GM-CSF. A cell count was then carried out.
Cells were counted using a haemocytometer. Approximately 20 μl of the resuspended cells was pipetted into the chamber of the haemocytometer, the cells were adjusted to the correct cell concentration (approx. 5×10^4, and not less than 1×10^4, per well) and then plated out for assay.
The plates were incubated overnight at 37° C. with 5% CO2 and allowed to settle (harvesting stimulates them). The next day the compounds (50 μg/ml and 20 μg/ml) and controls were added then again incubated at 37° C. with 5% CO2 for 24 hrs (or 48 hrs). Harvesting and addition of the compounds was all done in a hood. The plates were then frozen to kill the cells and once defrosted the supernatant analysed as described below.
Using an enzyme linked immunosorbent assay (ELISA) IL-12 concentration in the supernatants was measured. All reagents used in this assay were from PharMingen. A 96-well flat-bottomed ELISA plate was coated with purified rat anti-mouse IL-12 (p40/p70) MAb (Cat no. 554478) at 2 μg/ml diluted in PBS pH 9.0 at 50 μl/well. The plate was then covered in cling film and incubated at 4° C. Following incubation the plate was washed 3 times in washing buffer and dried. 200 μl of blocking buffer (10% foetal calf serum in PBS pH 7.0) was added to each well then covered in cling film and incubated at 37° C. for 45 minutes. The plate was washed 3 times and dried. Recombinant mouse Il-12 standard was added at 30 μl in duplicate wells, starting at 10 ng/ml then 5, 2.5, 1.25, 0.625, 0.31, 0.156, 0.078, 0.039, 0.020, 0.010, 0.005 ng/ml. Standards were diluted in blocking buffer. The supernatant samples were added in at 50 μl/well. The plate was then covered in cling film and incubated for 2 hours at 37° C. The plate was then washed 4 times, dried and the secondary antibody added.
Biotin labelled anti-mouse IL-12 (p40/p70) MAb (Cat no. 18482D) at 1 μg/ml (diluted in blocking buffer) was added to each well at a volume of 100 μl/well. The plate was covered in cling film and incubated at 37° C. for 1 hour. The plate was then washed 5 times, dried and the conjugate added. Streptavidin-AKP (Cat no. 13043E) at 100 μl/well was added at a dilution of 1/2000 in blocking buffer followed by incubation under cling film at 37° C. for 45 minutes.
The plate was finally washed 6 times, dried and the substrate added. pNPP (Sigma) in glycine buffer at 1 mg/ml was added at 100 μl/well. The plate was then covered in tinfoil, incubated at 37° C. and checked every 30 minutes for a colour change.
The plate was then read at 405 nm using a SPECTRAmax 190 spectrometer.
In general terms: An ELISA detects its analyte on a solid surface through an enzyme-linked reagent.

The subject of assay [8] is spleen cells from Leishmania major infected BALB/c mice. The assay can be described thus: Non-healing leishmaniasis model: splenocyte IFN-γ. Format: cell-based. Particulars: for IFN-γ: Table 10.1.
Assay [9] has the same test system. The assay can be described thus: Non-healing leishmaniasis model: splenocyte IL-5. The assay is classed as cell-based.
Assay [10] concerns Dendritic cells. The assay is classed as cell-based, BALB/c mice.
Description: Bone marrow was obtained from the femurs of mice. The femurs were washed in 70% ethanol and placed in a clean petri dish. Dendritic cell (DC) medium (2.5% granulocyte-macrophage colony-stimulating factor (GM-CSF), 10% heat and activated foetal calf serum, 1% L-glutamine, 1% Penicillin/Streptomycin in RPMI-1640 medium) was injected into the bone marrow of the femur by a pumping action and the cells and medium were collected. 1 ml of the cells in medium was added to a 75 cm^2 flask with 15 mls of DC medium. The flasks were then incubated at 37° C., 5% CO2 to allow DC growth and development. After 5 days an additional 10 mls of DC medium was added.
After 10 days of incubation of bone marrow with GM-CSF, the dendritic cells were harvested. This process was carried out in a tissue culture hood. The contents of the flasks were poured into centrifuge tubes to ensure collection of floating DCs. Approximately 10 mls of cooled phosphate buffered saline (PBS) was added to each empty flask, the flasks gently agitated and the contents collected. This ensured recovery of adhesive DCs. […]
Cells were counted using a haemocytometer. […]
The plates were incubated overnight at 37° C. with 5% CO2 and allowed to settle (harvesting stimulates them). […] The plates were then frozen to kill the cells and once defrosted the supernatant analysed as described below.
The subject of assay [11] is glycosidase enzymes of Table 4.1. Description: Glycosidase inhibition, all enzymes tested (Table 4.1). Format: biochemical. The note with it: 1 mg/ml; result in words. On the procedure: as §1, §2
A further assay relates to α-mannosidase. Particulars: background statement; cited from earlier work.
A further assay concerns B16-F10 tumour cells. Description: Control of lung metastasis in mice. The assay is classed as in vivo, Mice (C57/bl6). The note with it: 50 mg/kg s/c on days 2 and 4; lungs on day 14.

Read-outs that look alike come from different tables or passages of the source.

T2 sequence (P07768 whole entry): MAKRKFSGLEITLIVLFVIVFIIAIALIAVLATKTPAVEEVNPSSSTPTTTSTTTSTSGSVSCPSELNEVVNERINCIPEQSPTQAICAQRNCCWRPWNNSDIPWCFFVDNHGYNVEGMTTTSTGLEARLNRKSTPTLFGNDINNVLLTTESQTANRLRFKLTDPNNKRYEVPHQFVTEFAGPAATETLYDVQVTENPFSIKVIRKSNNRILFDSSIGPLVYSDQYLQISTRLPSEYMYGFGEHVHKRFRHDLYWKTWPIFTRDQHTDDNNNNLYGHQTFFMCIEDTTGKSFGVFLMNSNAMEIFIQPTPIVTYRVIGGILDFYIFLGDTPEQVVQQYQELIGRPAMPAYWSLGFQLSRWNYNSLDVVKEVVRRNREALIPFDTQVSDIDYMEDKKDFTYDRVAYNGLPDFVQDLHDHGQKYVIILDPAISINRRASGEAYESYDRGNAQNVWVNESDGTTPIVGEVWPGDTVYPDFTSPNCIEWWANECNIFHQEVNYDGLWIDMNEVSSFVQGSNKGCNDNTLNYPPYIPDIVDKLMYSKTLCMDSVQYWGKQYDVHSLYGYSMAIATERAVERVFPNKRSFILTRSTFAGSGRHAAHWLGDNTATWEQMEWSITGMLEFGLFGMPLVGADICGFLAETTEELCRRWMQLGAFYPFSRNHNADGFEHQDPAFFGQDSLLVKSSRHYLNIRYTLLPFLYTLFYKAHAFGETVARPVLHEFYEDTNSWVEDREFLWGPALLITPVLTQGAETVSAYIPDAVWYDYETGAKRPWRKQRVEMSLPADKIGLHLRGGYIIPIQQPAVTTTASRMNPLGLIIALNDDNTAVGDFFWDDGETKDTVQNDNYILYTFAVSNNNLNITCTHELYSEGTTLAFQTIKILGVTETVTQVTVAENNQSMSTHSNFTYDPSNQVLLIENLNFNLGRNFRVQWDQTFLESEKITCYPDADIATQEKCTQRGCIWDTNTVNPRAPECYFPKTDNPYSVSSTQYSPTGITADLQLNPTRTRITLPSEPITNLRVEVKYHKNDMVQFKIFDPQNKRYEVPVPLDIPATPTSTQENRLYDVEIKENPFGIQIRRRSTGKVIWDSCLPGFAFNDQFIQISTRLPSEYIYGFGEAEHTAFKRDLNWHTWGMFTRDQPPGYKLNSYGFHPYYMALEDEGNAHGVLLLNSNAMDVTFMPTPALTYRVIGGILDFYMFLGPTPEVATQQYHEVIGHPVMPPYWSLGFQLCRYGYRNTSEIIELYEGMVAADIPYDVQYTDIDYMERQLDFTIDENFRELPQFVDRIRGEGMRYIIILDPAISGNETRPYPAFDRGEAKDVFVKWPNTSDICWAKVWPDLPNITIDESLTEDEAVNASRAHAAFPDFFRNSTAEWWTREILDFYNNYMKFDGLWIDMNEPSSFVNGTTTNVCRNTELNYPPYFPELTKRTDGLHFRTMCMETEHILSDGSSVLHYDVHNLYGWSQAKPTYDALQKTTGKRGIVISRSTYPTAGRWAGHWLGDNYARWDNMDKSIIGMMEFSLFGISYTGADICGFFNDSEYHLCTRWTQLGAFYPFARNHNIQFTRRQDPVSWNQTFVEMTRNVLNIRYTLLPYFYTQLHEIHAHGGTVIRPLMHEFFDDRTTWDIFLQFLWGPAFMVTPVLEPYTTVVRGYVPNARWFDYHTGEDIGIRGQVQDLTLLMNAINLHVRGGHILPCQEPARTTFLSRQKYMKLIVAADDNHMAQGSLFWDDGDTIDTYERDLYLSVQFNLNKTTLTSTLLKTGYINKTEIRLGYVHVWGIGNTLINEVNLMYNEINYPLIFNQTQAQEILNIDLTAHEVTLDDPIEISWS
T1 sequence (P53341 whole entry): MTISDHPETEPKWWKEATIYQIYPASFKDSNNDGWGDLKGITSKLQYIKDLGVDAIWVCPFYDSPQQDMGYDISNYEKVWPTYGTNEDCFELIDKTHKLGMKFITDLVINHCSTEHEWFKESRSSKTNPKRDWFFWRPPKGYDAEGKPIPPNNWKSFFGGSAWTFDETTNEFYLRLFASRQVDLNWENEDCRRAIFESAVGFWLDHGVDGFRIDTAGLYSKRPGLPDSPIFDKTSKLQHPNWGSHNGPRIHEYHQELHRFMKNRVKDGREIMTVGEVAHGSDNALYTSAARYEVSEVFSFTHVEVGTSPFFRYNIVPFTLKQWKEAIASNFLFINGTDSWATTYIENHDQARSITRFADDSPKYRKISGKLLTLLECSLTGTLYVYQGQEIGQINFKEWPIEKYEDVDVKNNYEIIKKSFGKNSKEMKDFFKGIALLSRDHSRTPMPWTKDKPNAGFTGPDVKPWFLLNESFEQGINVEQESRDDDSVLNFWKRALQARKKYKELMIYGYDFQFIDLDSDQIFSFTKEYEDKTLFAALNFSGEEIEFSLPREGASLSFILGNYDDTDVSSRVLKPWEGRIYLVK
Description for B16-F10 tumour cells: Mice (C57/bl6 under i/p ketamine anaesthesia) were challenged i/v (tail vein) with 5×10^4 B16-F10 tumour cells in a final volume of 100 μl per mouse on day 0. Test compounds (50 mg/kg in 200 μl sterile non-pyrogenic saline) were administered s/c (right flank) on days 2 and 4. On day 14 the mice were sacrifices and the lungs dissected and stained in Indian ink solution (150 ml bidistilled water, 30 ml India Ink, 4 drops NH4OH) for 10 minutes then fixed for at least 24 hr in Fakete's solution (90 ml 37% formaldehyde, 900 ml 70% EtOH and 45 ml glacial acetic acid). The metastases in the stained and fixed lungs could then be visualized, counted and photographed.

As usually defined, the Ki is a measure of affinity in units of concentration, obtained from inhibition or displacement. Broadly, the IC50 is the concentration that gives 50% inhibition. For the compound `O[C@H]1[C@H](O)[C@@H](O)CN2CC[C@H](O)[C@H]12` [Castanospermine (20), Castanospermine, reference compound], the “% inhibition N-acetyl-β-gluc” value in [1] was 16%. In addition, at α-D-glucosidase [2], the “inhibition of yeast α-D-glucosidase” value is “not being inhibitory”. Also, in assay [3], the “inhibition of rabbit small intestine sucrase” value is “inhibited”. Besides, in the assay with β-D-galactosidase, the “% inhibition galactosidase” value came to 16%. Also, the “% inhibition Naringinase” value with Naringinase was determined as 39%. Moreover, the “IFN-γ” value in the assay on Spleen cells (Table 3.2, compound + αCD3) is 9.0 ng/mL; in the assay on Spleen cells (Table 3.2, treatment alone), below 1.0 ng/mL. For the same compound, the “IFN-γ secretion/production in splenocytes” value with Spleen cells (result in words) is recorded as “inhibits the production of this cytokine”. Also, the “% inhibition gluc (Bacillus)” value with α-D-glucosidase [4] is reported as 6%. In addition, the “% inhibition glucosidase” value in the assay with β-D-glucosidase is on record as 88%. For the same compound, the Ki on β-D-glucosidase (read-out: Ki with almond 6-D-glucosidase) amounted to 9 µM. This compound also had an IC50 in [5] of 8 µM. Further, the “Glucose uptake” value in assay [6] (initial rate, control 240) worked out at 225 pmol/s/mg. The glucose transport result in assay [6] (result in words) is listed as “slightly inhibited”. The “IL-12 RELEASE” value in the assay with Dendritic cells [7] is “No”.
With `OC[C@H]1[C@@H](O)[C@H](O)[C@H]2[C@@H](O)[C@@H](O)CN21` [3,7-diepi-casuarine (10), (1R,2R,3S,6S,7R,7aR)-3-(Hydroxymethyl)-1,2,6,7-tetrahydroxypyrrolizidine], in [1], the “% inhibition N-acetyl-β-gluc” value was −6%. The “IFN-γ” value in [8] (compound + L. major Ag) is 5.5 ng/mL; in assay [8] (treatment alone) it was around 0.5 ng/mL; in the assay with Spleen cells (Table 3.1, treatment alone) it was 0.22 ng/mL. Moreover, in assay [8] (result in words), the “IFN-γ (healing Th1 response)” value is on record as “enhances IFN-γ”. In addition, the “% inhibition Naringinase” value in the assay with Naringinase is on record as 6%. In addition, in the assay on α-D-glucosidase [4], the “% inhibition gluc (Bacillus)” value is on record as −7%. Besides, the “IL-5” value in assay [9] (Table 10.2, compound + αCD3) stood at 150 pg/mL. For the same compound, in assay [9] (result in words), the “Th2 response (IL-5)” value was “suppressing the Th2 response (via downregulation of the Th2 cytokine IL-5)”. Further, the “% inhibition glucosidase” value in the assay on β-D-glucosidase worked out at 5%. Also, the entries for the “IL-2 (units/ml)” value with Dendritic cells [10] (compound + LPS) and with Dendritic cells [10] (treatment alone) were 0.69 units/ml and 0.00 units/ml, respectively. In addition, in assay [11], the “inhibition of any of the enzymes tested” value was “do not significantly inhibit any of the enzymes tested”. For the same compound, in the assay on Dendritic cells [7], the “IL-12 RELEASE” value was “Yes”.
Turning to `O[C@H]1[C@H]2[C@H](O)CCCN2C[C@H]1O` [Swainsonine (4), Swainsonine], the “inhibition of α-mannosidase” value in the assay with α-mannosidase was “potent and specific inhibitor of α-mannosidase”. Moreover, in the assay on Dendritic cells [7], the “IL-12 RELEASE” value is listed as “No”. Moreover, the IL-12 secretion entry with Dendritic cells [7] (tested at 50 μg/ml) is recorded as “failed to induce IL-12 secretion”.
With `OC[C@H]1[C@@H](O)[C@H](O)[C@H]2[C@H](O)[C@@H](O)CN21` [3-epi-casuarine (14), 3-epi-casuarine], the “% inhibition N-acetyl-β-gluc” value in [1] is reported as −1%. For the same compound, the “% inhibition galactosidase” value with β-D-galactosidase turned out to be 6%. Besides, the Metastatic morphology entry in the assay on B16-F10 tumour cells is reported as “Metastasis restricted to apical tip of lung”. In the assay with Naringinase, the “% inhibition Naringinase” value came to 21%. Besides, the “% inhibition gluc (Bacillus)” value in the assay with α-D-glucosidase [4] amounted to 12%. Besides, the “% inhibition glucosidase” value in the assay with β-D-glucosidase stood at 56%. The “IL-12 RELEASE” value in the assay on Dendritic cells [7] is on record as “Yes”.

These data come from patent US8557859B2, “Immunomodulatory compositions” (Summit (Wales) Limited, priority 2003, dated 2013).
